The text below walks through data of ChEMBL document CHEMBL5579843, “Multimechanism biological profiling of tetrahydro-β-carboline analogues as selective HDAC6 inhibitors for the treatment of Alzheimer's disease” (Eur J Med Chem, 2024).

Active and inactive are the calls of the source. The calls are words filed in the database; no cut-off is given here.

The subject of assay [1] is PC-12. In words: Induction of neurite outgrowth in rat PC-12 cells assessed as increase in neuronal protrusions at 10 uM measured after 48 hrs by light microscopic analysis. The assay is classed as functional, cell-based.
For assay [2], the target named is T1, Polyamine deacetylase HDAC10 (Homo sapiens, UniProt Q969S8).
T1 sequence (Q969S8 whole entry): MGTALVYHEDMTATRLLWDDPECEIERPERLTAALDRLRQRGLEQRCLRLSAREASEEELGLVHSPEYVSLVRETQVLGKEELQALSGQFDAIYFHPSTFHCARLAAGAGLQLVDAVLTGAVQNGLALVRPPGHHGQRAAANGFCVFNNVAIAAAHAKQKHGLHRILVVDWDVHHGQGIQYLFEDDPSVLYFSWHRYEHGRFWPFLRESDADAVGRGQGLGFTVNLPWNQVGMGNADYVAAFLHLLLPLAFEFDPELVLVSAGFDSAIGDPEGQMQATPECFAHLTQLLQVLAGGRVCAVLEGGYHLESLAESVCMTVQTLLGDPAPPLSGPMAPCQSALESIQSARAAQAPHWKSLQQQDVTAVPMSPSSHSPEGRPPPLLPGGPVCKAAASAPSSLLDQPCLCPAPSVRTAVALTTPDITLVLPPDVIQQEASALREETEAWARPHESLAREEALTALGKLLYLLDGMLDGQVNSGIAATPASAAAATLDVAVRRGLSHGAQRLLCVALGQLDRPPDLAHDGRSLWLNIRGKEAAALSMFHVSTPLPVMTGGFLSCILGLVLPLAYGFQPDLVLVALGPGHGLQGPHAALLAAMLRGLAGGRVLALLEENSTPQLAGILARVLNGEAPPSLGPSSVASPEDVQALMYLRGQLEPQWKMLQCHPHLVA
The assay can be described thus: Inhibition of HDAC10 (unknown origin) by TR-FRET assay.

Assay [3] deals with PC-12. In words: Induction of neurite outgrowth in rat PC-12 cells assessed as increase in average neuronal length at 1 to 10 uM measured after 48 hrs by light microscopic analysis. The assay is classed as functional, cell-based. Particulars: dose 1-10 µM.
Assay [4] has as its system PC-12. In words: Neuroprotective activity against H2O2-induced oxidative damage in rat PC-12 cells assessed as reduction in ROS level at 10 uM pretreated for 4 hrs followed by H2O2 stimulation and measured after 24 hrs by DCFH-DA staining based fluorescence microscopic analysis. The assay is classed as functional, cell-based. As to conditions: time 28.0 hrs.
Assay [5] relates to PC-12. In words: Neuroprotective activity against H2O2-induced oxidative damage in rat PC-12 cells assessed as increase in catalase protein expression at 10 uM pretreated for 4 hrs followed by H2O2 stimulation and measured after 24 hrs by Western blot analysis. Particulars: time 28.0 hrs. The assay is classed as functional, cell-based.
The test system of assay [6] is PC-12. The assay can be described thus: Neuroprotective activity against H2O2-induced oxidative damage in rat PC-12 cells assessed as inhibition of apoptosis by measuring decrease in PARP protein expression pretreated for 4 hrs followed by H2O2 stimulation and measured after 24 hrs by Western blot analysis. The assay is classed as functional, cell-based. Particulars: dose 1-10 µM, time 28.0 hrs.

The test system of assay [7] is PC-12. In words: Induction of neurite outgrowth in rat PC-12 cells assessed as increase in neuronal growth at 10 uM measured after 48 hrs by light microscopic analysis relative to control. The assay is classed as functional.
Assay [8] deals with PC-12. In words: Neuroprotective activity against H2O2-induced oxidative damage in rat PC-12 cells assessed as inhibition of apoptosis by measuring live cells at 10 uM pretreated for 4 hrs followed by H2O2 stimulation and measured after 24 hrs by Annexin V-FITC/PI staining based flow cytometry analysis (reference value: 81.7%). The assay is classed as functional. Details: scale not given: the % may be the effect or the level left. As to conditions: time 28 hrs.

Assay [9] concerns PC-12. In words: Neuroprotective activity against H2O2-induced oxidative damage in rat PC-12 cells assessed as increase in Prx II protein expression measured after 24 hrs by Western blot analysis. The assay is classed as functional, cell-based. As to conditions: dose 1-10 µM.
The next assay concerns the target T2, Histone deacetylase 8 (Homo sapiens, UniProt Q9BY41).
T2 sequence (Q9BY41 whole entry): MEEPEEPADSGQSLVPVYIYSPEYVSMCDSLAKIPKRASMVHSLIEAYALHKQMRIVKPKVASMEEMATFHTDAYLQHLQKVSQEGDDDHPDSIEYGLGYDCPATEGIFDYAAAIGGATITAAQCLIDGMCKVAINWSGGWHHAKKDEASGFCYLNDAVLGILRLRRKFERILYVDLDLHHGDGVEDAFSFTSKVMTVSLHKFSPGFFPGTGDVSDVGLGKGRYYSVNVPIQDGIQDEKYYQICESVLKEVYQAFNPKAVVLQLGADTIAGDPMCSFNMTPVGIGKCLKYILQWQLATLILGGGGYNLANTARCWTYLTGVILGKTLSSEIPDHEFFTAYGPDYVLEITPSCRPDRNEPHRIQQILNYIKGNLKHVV
In words: Inhibition of HDAC8 (unknown origin).

Assay [10] has as its system PC-12. In words: Neuroprotective activity against H2O2-induced oxidative damage in rat PC-12 cells assessed as increase in Nrf2 protein expression at 10 uM pretreated for 4 hrs followed by H2O2 stimulation and measured after 24 hrs by Western blot analysis. The assay is classed as functional, cell-based. As to conditions: time 28.0 hrs.
Assay [11] has as its system PC-12. The assay can be described thus: Neuroprotective activity against H2O2-induced oxidative damage in rat PC-12 cells assessed as inhibition of apoptosis by measuring increase in Bcl-2 protein expression pretreated for 4 hrs followed by H2O2 stimulation and measured after 24 hrs by Western blot analysis. The assay is classed as functional, cell-based. Particulars: dose 1-10 µM, time 28.0 hrs.

Assay [12] can be described thus: Antioxidant activity assessed as ABTS radical scavenging activity measured after 30 mins by absorbance based analysis. The assay is classed as functional.
The species named for assay [13] is Danio rerio. The assay can be described thus: Effect on anxiety-like behavior in scopolamine induced zebrafish alzheimer disease model assessed as exploratory behavior in upper part of aquarium by measuring increase in swimming speed at 1 mg/L pretreated with scopolamine for 30 mins followed by compound addition for 3 mins by novel tank diving test. The assay is classed as functional, organism-based.

The subject of assay [14] is PC-12. The assay can be described thus: Neuroprotective activity against 6-OHDA-induced oxidative damage in rat PC-12 cells assessed as increase in cell survival at 1 to 10 uM pretreated for 4 hrs followed by 500 uM 6-OHDA stimulation and measured after 24 hrs by MTT assay. The assay is classed as functional, cell-based. Particulars: dose 1-10 µM, time 28.0 hrs.
The test system of assay [15] is PC-12. In words: Neuroprotective activity against H2O2-induced oxidative damage in rat PC-12 cells assessed as reduction in intracellular LDH level by measuring residual activity at 1 uM pretreated for 4 hrs followed by H2O2 stimulation and measured after 24 hrs relative to control. The assay is classed as functional. As to conditions: time 28 hrs.
In assay [16] the test system is PC-12. The assay can be described thus: Inhibition of HDAC6 in rat PC-12 cells assessed as increase in acetylated alpha-tubulin level incubated for 6 hrs by Western blot analysis. The assay is classed as cell-based. As to conditions: dose 0.1-10 µM.
The nature of assay [17]: Antioxidant activity assessed as DPPH scavenging activity incubated for 0.5 hrs by absorbance based assay. The assay is classed as functional.
For assay [18], the system named is PC-12. The assay can be described thus: Neuroprotective activity against H2O2-induced oxidative damage in rat PC-12 cells assessed as SOD activity at 10 uM pretreated for 4 hrs followed by H2O2 stimulation and measured after 24 hrs by WST-8 assay. Particulars: time 28 hrs. The assay is classed as functional.
For assay [19], the system named is PC-12. In words: Neuroprotective activity against H2O2-induced oxidative damage in rat PC-12 cells assessed as cell survival rate at 10 uM pretreated for 4 hrs followed by 800 uM H2O2 stimulation and measured after 24 hrs by MTT assay relative to control. The assay is classed as functional. Particulars: time 28 hrs, read-out: Survival.
The species entered for assay [20] is Danio rerio. The assay can be described thus: Cognitive improvement ability in scopolamine induced zebrafish alzheimer disease model assessed as improvement in spatial memory by measuring increase in activity at enriched chamber region at 1 mg/L pretreated with scopolamine for 30 mins followed by compound addition for 3 mins by T-maze test. The assay is classed as functional, organism-based.

For the next assay, the system named is SH-SY5Y. In words: Neuroprotective activity against H2O2-induced oxidative damage in human SH-SY5Y cells assessed as increase in cell survival pretreated for 4 hrs followed by 200 uM H2O2 stimulation and measured after 24 hrs by MTT assay. The assay is classed as functional, cell-based. As to conditions: dose 1-10 µM, time 28.0 hrs.

Turning to `O=C(NO)c1ccc(CN2CCc3c(n(CC4CC4)c4ccc(F)cc34)C2)cc1`, the result in the assay with PC-12 [1], in the assay on PC-12 [3], in the assay on PC-12 [4], with PC-12 [5], in the assay on PC-12 [10] and in the assay listed under Danio rerio [13] was Active. Also, the outcome in the assay with PC-12 [14] and in the assay listed under Danio rerio [20] was Active. Further, the IC50 in [2] worked out at 0.524 µM; on Histone deacetylase 8, 1.95 µM; in [12], 10.4 µM; in assay [17] it was 22.5 µM. The Activity entry was “Dose-Dependent Effect” with PC-12 [6]; 15.3% in the assay on PC-12 [7]; 91.5% in the assay with PC-12 [8]; “Dose-Dependent Effect” in the assay on PC-12 [9]; “Dose-Dependent Effect” with PC-12 [11]; 74.3% with PC-12 [15]. Further, the Activity was 17.16 U/mg with PC-12 [18] and “Dose-Dependent Effect” in the assay with SH-SY5Y. In addition, the inhibition entry in the assay with PC-12 [16] is “Dose-Dependent Effect”. Besides, the viability at 10 µM with PC-12 [19] was 89.7%.
